Assay [1] concerns IL-17A-induced G-CSF production in human normal keratinocyte (NHK). Nature of the assay: NHK Assay: IL-17A-induced G-CSF production in human normal keratinocytes. The class given is cell-based. The conditions noted are these: Homo sapiens, Keratinocyte, 24 h, adult normal human keratinocytes, IL-17A 5 ng/mL, simple average if tested more than once. The gist of the method:
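Compound is first combined with recombinant human IL-17A for 1 h at rt, and the mix is added to adult normal human keratinocytes so that IL-17A is 5 ng/mL. After 24 h at 37° C in 5% FBS, G-CSF released into the medium is read by HTRF and IC50 derived.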

The target in assay [2] is IL-17A(FLAG-Tagged): IL-17RA(His-Tagged) (Homo sapiens, UniProt Q16552, K93Q). Nature of the assay: IL-17A(FLAG-Tagged): IL-17RA(His-Tagged) Binding Disruption Eu-HTRF Assay. The conditions noted are these: IL-17A/IL-17RA binding disruption, simple average if tested more than once. An outline of the steps: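 IC50 comes from a one-site competition fit of the HTRF 665/620 nm ratio. Compound dilutions (2-fold, 22 points) were held 1 h rt with FLAG-tagged IL-17A dimer, then His-tagged IL-17RA plus Eu-cryptate anti-FLAG and D2 anti-His antibodies were added for 2 h rt.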
Chain of UniProt Q16552 (Q16552 with tags, fused parts or gaps K93Q): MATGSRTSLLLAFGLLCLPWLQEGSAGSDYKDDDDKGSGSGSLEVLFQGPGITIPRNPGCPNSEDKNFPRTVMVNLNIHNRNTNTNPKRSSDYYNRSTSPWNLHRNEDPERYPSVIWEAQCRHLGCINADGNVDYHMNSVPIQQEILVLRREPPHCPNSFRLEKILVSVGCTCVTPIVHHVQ
(TR-FRET usually uses a lanthanide donor and a delayed reading to cut background.)

Usually IC50 stands for the point on the concentration scale where inhibition reaches its midpoint. Turning to `CC(C)Oc1cc(C(=O)N[C@H](c2cn3ncc([C@H](NC(=O)CCC(F)(F)F)C4CC4)cc3n2)C2CCC(F)(F)CC2)ccn1` [Example 175, N—((S)-(7-((R)-Cyclopropyl(4,4,4-trifluorobutanamido)methyl)imidazo[1,2-b]pyridazin-2-yl)(4,4-difluorocyclohexyl)methyl)-2-isopropoxyisonicotinamide], the IC50 in assay [1] was found to be 400 nM; in assay [2], 80 nM.

For `O=C(CCC(F)(F)F)N[C@@H](c1cnn2cc([C@@H](NC(=O)c3cncc(N4CCCC4=O)c3)C3CCC(F)(F)CC3)nc2c1)C1CC1` [Example 176, N—((S)-(7-((R)-Cyclopropyl(4,4,4-trifluorobutanamido)methyl)imidazo[1,2-b]pyridazin-2-yl)(4,4-difluorocyclohexyl)methyl)-5-(2-oxopyrrolidin-1-yl)nicotinamide], the IC50 in assay [1] was 420 nM; in assay [2], 110 nM.

Regarding `CCOc1cc(C(=O)N[C@H](c2cn3ncc([C@H](NC(=O)CCC(F)(F)F)C4CC4)cc3n2)C2CCC(F)(F)CC2)ccn1` [Example 177, N—((S)-(7-((R)-Cyclopropyl(4,4,4-trifluorobutanamido)methyl)imidazo[1,2-b]pyridazin-2-yl)(4,4-difluorocyclohexyl)methyl)-2-ethoxyisonicotinamide], the values for the 50% inhibitory concentration (IC50) in assay [1] and in assay [2] were 440 nM and 53 nM, respectively.

As to `O=C(CCC(F)(F)F)N[C@@H](c1cnn2cc([C@@H](NC(=O)c3cncc(C(F)(F)F)c3)C3CCC(F)(F)CC3)nc2c1)C1CC1` [Example 178, N—((S)-(7-((R)-Cyclopropyl(4,4,4-trifluorobutanamido)methyl)imidazo[1,2-b]pyridazin-2-yl)(4,4-difluorocyclohexyl)methyl)-5-(trifluoromethyl)nicotinamide], the values for the IC50 in assay [1] and in assay [2] were 450 nM and 67 nM, respectively.

On to `O=C(CCC(F)(F)F)N[C@@H](c1cnn2cc([C@@H](NC(=O)c3ccnc(OCC(F)F)c3)C3CCC(F)(F)CC3)nc2c1)C1CC1` [Example 179, N—((S)-(7-((R)-Cyclopropyl(4,4,4-trifluorobutanamido)methyl)imidazo[1,2-b]pyridazin-2-yl)(4,4-difluorocyclohexyl)methyl)-2-(2,2-difluoroethoxy)isonicotinamide], for which the results for the IC50 in assay [1] and in assay [2] were 450 nM and 45 nM, respectively.

For the compound `O=C(CCC(F)(F)F)N[C@@H](c1cnn2cc([C@@H](NC(=O)c3cccc(OCC4CC4)c3)C3CCC(F)(F)CC3)nc2c1)C1CC1` [Example 180, N—((S)-(7-((R)-Cyclopropyl(4,4,4-trifluorobutanamido)methyl)imidazo[1,2-b]pyridazin-2-yl)(4,4-difluorocyclohexyl)methyl)-3-(cyclopropylmethoxy)benzamide], the IC50 stood at 450 nM in assay [1] and 130 nM in assay [2].

Turning to `O=C(CCC(F)(F)F)N[C@@H](c1cnn2cc([C@@H](NC(=O)c3ccnc(OC4CCC4)c3)C3CCC(F)(F)CC3)nc2c1)C1CC1` [Example 181, 2-Cyclobutoxy-N—((S)-(7-((R)-cyclopropyl(4,4,4-trifluorobutanamido)methyl)imidazo[1,2-b]pyridazin-2-yl)(4,4-difluorocyclohexyl)methyl)isonicotinamide], the IC50 in assay [1] is 460 nM; in assay [2] it was 80 nM.

In the case of `O=C(CCC(F)(F)F)N[C@@H](c1cnn2cc([C@@H](NC(=O)c3ccc(F)cc3)C3CCC(F)(F)CC3)nc2c1)C1CC1` [Example 182, N—((S)-(7-((R)-Cyclopropyl(4,4,4-trifluorobutanamido)methyl)imidazo[1,2-b]pyridazin-2-yl)(4,4-difluorocyclohexyl)methyl)-4-fluorobenzamide], the IC50 in assay [1] stood at 510 nM; in assay [2], 85 nM.

For `O=C(CCC(F)(F)F)N[C@@H](c1cnn2cc([C@@H](NC(=O)c3cncc(OCC(F)F)c3)C3CCC(F)(F)CC3)nc2c1)C1CC1` [Example 183, N—((S)-(7-((R)-Cyclopropyl(4,4,4-trifluorobutanamido)methyl)imidazo[1,2-b]pyridazin-2-yl)(4,4-difluorocyclohexyl)methyl)-5-(2,2-difluoroethoxy)nicotinamide], the 50% inhibitory concentration (IC50) in assay [1] was found to be 520 nM; in assay [2], 69 nM.

In the case of `COc1cc(C(=O)N[C@H](c2cn3ncc([C@H](NC(=O)CCC(F)(F)F)C4CC4)cc3n2)C2CCC(F)(F)CC2)ccn1` [Example 184, N—((S)-(7-((R)-Cyclopropyl(4,4,4-trifluorobutanamido)methyl)imidazo[1,2-b]pyridazin-2-yl)(4,4-difluorocyclohexyl)methyl)-2-methoxyisonicotinamide], the 50% inhibitory concentration (IC50) was 590 nM in assay [1] and 110 nM in assay [2].

As for `CC(C)Oc1cncc(C(=O)N[C@H](c2cn3ncc([C@H](NC(=O)CCC(F)(F)F)C4CC4)cc3n2)C2CCC(F)(F)CC2)c1` [Example 185, N—((S)-(7-((R)-Cyclopropyl(4,4,4-trifluorobutanamido)methyl)imidazo[1,2-b]pyridazin-2-yl)(4,4-difluorocyclohexyl)methyl)-5-isopropoxynicotinamide], the figures for the IC50 in assay [1] and in assay [2] were 690 nM and 45 nM, respectively.

For the compound `O=C(CCC(F)(F)F)N[C@@H](c1cnn2cc([C@@H](NC(=O)c3ccnc(OC(F)F)c3)C3CCC(F)(F)CC3)nc2c1)C1CC1` [Example 186, N—((S)-(7-((R)-Cyclopropyl(4,4,4-trifluorobutanamido)methyl)imidazo[1,2-b]pyridazin-2-yl)(4,4-difluorocyclohexyl)methyl)-2-(difluoromethoxy)isonicotinamide], the values for the half-inhibitory concentration (IC50) in assay [1] and in assay [2] were 720 nM and 110 nM, respectively.

For `O=C(CCC(F)(F)F)N[C@@H](c1cnn2cc([C@@H](NC(=O)c3ccccc3C(F)F)C3CCC(F)(F)CC3)nc2c1)C1CC1` [Example 187, N—((S)-(7-((R)-Cyclopropyl(4,4,4-trifluorobutanamido)methyl)imidazo[1,2-b]pyridazin-2-yl)(4,4-difluorocyclohexyl)methyl)-2-(difluoromethyl)benzamide], the IC50 in assay [1] stood at 730 nM; in assay [2], 260 nM.

As for `N#Cc1cccc(C(=O)N[C@H](c2cn3ncc([C@H](NC(=O)CCC(F)(F)F)C4CC4)cc3n2)C2CCC(F)(F)CC2)c1` [Example 188, 3-Cyano-N—((S)-(7-((R)-cyclopropyl(4,4,4-trifluorobutanamido)methyl)imidazo[1,2-b]pyridazin-2-yl)(4,4-difluorocyclohexyl)methyl)benzamide], the figures for the 50% inhibitory concentration (IC50) in assay [1] and in assay [2] were 750 nM and 150 nM, respectively.

For `COc1cncc(C(=O)N[C@H](c2cn3ncc([C@H](NC(=O)CCC(F)(F)F)C4CC4)cc3n2)C2CCC(F)(F)CC2)c1` [Example 189, N—((S)-(7-((R)-Cyclopropyl(4,4,4-trifluorobutanamido)methyl)imidazo[1,2-b]pyridazin-2-yl)(4,4-difluorocyclohexyl)methyl)-5-methoxynicotinamide], the IC50 in assay [1] stood at 810 nM; in assay [2] it was 230 nM.

For the compound `O=C(CCC(F)(F)F)N[C@@H](c1cnn2cc([C@@H](NC(=O)c3ccncc3)C3CCC(F)(F)CC3)nc2c1)C1CC1` [Example 190, N—((S)-(7-((R)-Cyclopropyl(4,4,4-trifluorobutanamido)methyl)imidazo[1,2-b]pyridazin-2-yl)(4,4-difluorocyclohexyl)methyl)isonicotinamide], the values for the IC50 in assay [1] and in assay [2] were 820 nM and 220 nM, respectively.

For the origin of these results see US11702422B2, “Imidazopyridazines as modulators of IL-17” (Janssen Pharmaceutica NV, priority 2020, dated 2023).
